Experimental data taken from US20080242688A1, “Method 741” (ASTRAZENECA AB, priority 2007, published 2008).
Values joined by “and” are separate entries in the source; they are usually repeats but may differ in a detail not shown here. Equal values may be shown once.

What was measured:
[1] = system: ferrets; assay: Emetic potential in ferrets; assay type: in vivo; settings: ferret
Description: The emetic potential of AZD0328 was investigated in ferrets (n=6-8/dose) following a single oral dose of vehicle or AZD0328 (Table 3). Videotape recordings were used for observation of the animals up to 4 h after dose for quantitation and timing of emetic behaviours, characterised as retches (abdominal contractions), vomits and wet-dog shakes.

[2] = Pentylenetetrazole-induced seizure threshold; settings: in vivo; rat, oral; read-out: NOAEL, proconvulsant activity
Description: AZD0328 was assessed for its ability to influence the threshold to clonic convulsions caused by an intravenous infusion of pentylenetetrazole (PTZ) in rats (Table 3).

[3] = molecular target: α7 receptor binding sites (Rattus norvegicus, UniProt Q05941); assay type: in vivo; settings: sc, 2-4 h
α7 receptor binding sites, sequence (Q05941 23-502): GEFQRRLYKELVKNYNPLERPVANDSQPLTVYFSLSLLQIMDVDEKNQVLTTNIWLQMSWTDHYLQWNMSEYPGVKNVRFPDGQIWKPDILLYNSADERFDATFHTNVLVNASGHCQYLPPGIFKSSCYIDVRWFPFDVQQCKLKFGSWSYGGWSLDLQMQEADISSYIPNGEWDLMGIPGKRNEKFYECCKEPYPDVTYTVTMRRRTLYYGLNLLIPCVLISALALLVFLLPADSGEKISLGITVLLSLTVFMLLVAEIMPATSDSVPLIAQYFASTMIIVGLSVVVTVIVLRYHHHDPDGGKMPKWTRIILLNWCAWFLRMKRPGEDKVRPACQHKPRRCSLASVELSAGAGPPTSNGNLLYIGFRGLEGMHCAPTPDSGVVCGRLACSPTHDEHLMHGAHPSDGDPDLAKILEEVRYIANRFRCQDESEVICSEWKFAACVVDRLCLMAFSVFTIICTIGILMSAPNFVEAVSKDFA

[4] = molecular target: T1, human recombinant 5-HT3A/B receptors (Homo sapiens, UniProt O95264+P46098); assay: Functional assays at recombinant human receptors; assay type: biochemical; settings: recombinant human receptors in vitro
T1 construct: expressed in transfected cells
T1 sequence (P46098 24-478): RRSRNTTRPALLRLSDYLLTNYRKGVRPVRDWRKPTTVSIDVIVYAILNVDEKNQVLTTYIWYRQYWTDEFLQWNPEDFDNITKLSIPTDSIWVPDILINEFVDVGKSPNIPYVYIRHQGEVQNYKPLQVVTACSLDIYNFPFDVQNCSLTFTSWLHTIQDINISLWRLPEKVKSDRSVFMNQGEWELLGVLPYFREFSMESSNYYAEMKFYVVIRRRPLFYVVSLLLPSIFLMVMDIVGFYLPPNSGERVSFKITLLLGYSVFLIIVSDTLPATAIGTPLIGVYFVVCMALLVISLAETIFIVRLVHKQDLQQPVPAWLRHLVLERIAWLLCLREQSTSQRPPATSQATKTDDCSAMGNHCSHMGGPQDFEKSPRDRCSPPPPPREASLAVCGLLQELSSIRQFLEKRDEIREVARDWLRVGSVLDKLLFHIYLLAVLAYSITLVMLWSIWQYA
T1 sequence (O95264 22-441): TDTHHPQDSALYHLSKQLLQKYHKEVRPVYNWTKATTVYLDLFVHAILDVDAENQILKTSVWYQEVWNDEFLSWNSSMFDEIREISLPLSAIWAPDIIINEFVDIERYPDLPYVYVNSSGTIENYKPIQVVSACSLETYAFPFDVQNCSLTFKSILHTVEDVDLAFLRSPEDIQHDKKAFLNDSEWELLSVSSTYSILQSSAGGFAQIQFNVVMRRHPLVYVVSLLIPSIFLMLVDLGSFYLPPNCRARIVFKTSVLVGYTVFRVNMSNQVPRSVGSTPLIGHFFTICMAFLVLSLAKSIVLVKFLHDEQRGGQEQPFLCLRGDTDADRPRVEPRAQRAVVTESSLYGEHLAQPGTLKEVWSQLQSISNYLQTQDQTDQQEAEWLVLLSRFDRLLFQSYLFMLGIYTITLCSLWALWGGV

[5] = CNS side effects in rhesus monkeys; settings: rhesus monkey, in vivo, po, read-out: NOAEL for decreased spatial working memory performance and CNS side effects (oral movements)
Description: CNS side effects and decreased spatial working memory performance only occurred together in monkeys administered high dose AZD0328. The NOAEL for decreased spatial working memory performance and oral movements in rhesus monkeys was determined to be 0.016 mg/kg. Doses projected to produce therapeutic benefits in human subjects are those doses that were effective in functional assays across three species and were below the NOAEL for adverse effects on cognitive function and general behaviour in rhesus monkeys (<0.016 mg/kg). Doses projected to produce therapeutic benefits in human subjects therefore fall in the range 0.0001-0.01 mg/kg.

[6] = Single oral dose pharmacokinetics in healthy human volunteers; assay type: in vivo; parameters: AUC/dose: unit not given beside the values; settings: for Cmax / Tmax / AUC / AUC(0-t) / half-life: human, plasma; for Cmax / AUC / AUC(0-t) / half-life / Cmax/Dose / AUC/dose / CL/F: geometric mean; for Tmax: median
Description: Total oral doses of AZD0328 in the range 0.025-0.68 mg produced mean plasma concentrations of 0.6-15 nM, consistent with the range of plasma concentrations found to be associated with improved performance in the spatial delayed response test in monkeys. Total oral doses of AZD0328 in the range 0.005-2 mg produced mean plasma concentrations of 0.17-43.9 nM, within the range of plasma concentrations found to be associated with improved performance in rodent models.

[7] = Intestinal transit (charcoal meal, glass bead); settings: in vivo; rat, oral; read-out: NOAEL on intestinal motility
Description: Effects of AZD0328 on small intestinal and colorectal motility were investigated in rats using the charcoal meal test and the glass bead test, respectively (Table 3). In the first part, evaluating intestinal transit, a test meal containing charcoal as a non-absorbable marker was administered to rats. In the second part, effects of oral administration of AZD0328 on colorectal transit time was evaluated.

[8] = system: putative dopaminergic neurons within the VTA; assay: Ventral Tegmental Area dopamine neuron firing; assay type: in vivo; settings: rat, iv, 0.17-0.5 h
[9] = system: Mouse lymphoma; assay: Mouse lymphoma test; assay type: cell-based
Text: The genotoxic potential of AZD0328 has been evaluated in the Ames test and in the Mouse lymphoma test. AZD0328 was not mutagenic in either of these tests.

[10] = Allometric scaling / predicted human pharmacokinetics
[11] = system: dogs; assay: Cardiovascular/ECG telemetry in dogs; assay type: in vivo; settings: dog, oral
Description: (§1) The cardiovascular effects of orally administered AZD0328 were assessed dogs implanted with telemetry transmitters (Table 3). The main purpose of the study was to evaluate effects on the QT interval of the ECG during a 7-days dosing period followed by 5 days of recovery, thus enabling assessment of any accumulation of effects and the recovery back to baseline. Systolic, diastolic and mean arterial blood pressure, heart rate, lead II ECG and core body temperature were recorded continuously. The PR, QRS and QT intervals of the ECG were measured, and the QT interval was corrected for changes in heart rate using the method of Van de Water (QTcV).

[12] = Cardiovascular/ECG telemetry in dogs; assay type: in vivo; settings: in vivo, dog, low dose group, read-out: total Cmax
Description: as §1

[13] = allometric scaling of in vivo data from rat and monkey

Structure (SMILES): c1cnc2c(c1)C[C@@]1(CN3CCC1CC3)O2 [AZD0328, (R)-Spiro[1-azabicyclo[2.2.2]octane-3,2′(3′H)-furo[2,3-b]pyridine]]
- dose with statistically significant difference from vehicle for retches ([1]; oral): 5.6 mg/kg
- emetic responses ([1]; oral gavage 5.6, 16.9 or 56.2 mg/kg): emetic responses were present at all doses
- NOAEL [2]: 64.9 mg/kg
- Dose active: [125I]-α-bungarotoxin binding ex vivo, increased receptor number [3]: 0.1 µg/kg
- functional potency at α7 versus 5-HT3A/B receptors [4]: equipotent
- NOAEL [5]: 0.016 mg/kg
- Cmax ([6]; single oral dose 0.005 mg): 0.17 nM
- Tmax ([6]; single oral dose 0.005 mg): 0.8 h
- AUC ([6]; single oral dose 0.025 mg): 0.0061 µM·h
- AUC(0-t) ([6]; single oral dose 0.025 mg): 0.0046 µM·h
- Cmax ([6]; single oral dose 0.025 mg): 0.6 nM
- half-life ([6]; single oral dose 0.025 mg): 6.3 h
- Tmax ([6]; single oral dose 0.025 mg): 1.3 h
- AUC ([6]; single oral dose 0.075 mg): 0.0169 µM·h
- AUC(0-t) ([6]; single oral dose 0.075 mg): 0.0156 µM·h
- Cmax ([6]; single oral dose 0.075 mg): 2.1 nM
- half-life ([6]; single oral dose 0.075 mg): 5.9 h
- Tmax ([6]; single oral dose 0.075 mg): 1.5 h
- AUC ([6]; single oral dose 0.23 mg): 0.0652 µM·h
- AUC(0-t) ([6]; single oral dose 0.23 mg): 0.0588 µM·h
- Cmax ([6]; single oral dose 0.23 mg): 6.4 nM
- half-life ([6]; single oral dose 0.23 mg): 6.7 h
- Tmax ([6]; single oral dose 0.23 mg): 1.5 h
- AUC ([6]; single oral dose 0.68 mg): 0.144 µM·h
- AUC(0-t) ([6]; single oral dose 0.68 mg): 0.133 µM·h
- Cmax ([6]; single oral dose 0.68 mg): 15 nM
- half-life ([6]; single oral dose 0.68 mg): 6 h
- Tmax ([6]; single oral dose 0.68 mg): 2.2 h
- AUC ([6]; single oral dose 1.35 mg): 0.333 µM·h
- AUC(0-t) ([6]; single oral dose 1.35 mg): 0.3 µM·h
- Cmax ([6]; single oral dose 1.35 mg): 31 nM
- half-life ([6]; single oral dose 1.35 mg): 6.9 h
- Tmax ([6]; single oral dose 1.35 mg): 3.2 h
- AUC ([6]; single oral dose 2 mg): 0.421 µM·h
- AUC(0-t) ([6]; single oral dose 2 mg): 0.395 µM·h
- Cmax ([6]; single oral dose 2 mg): 43.9 nM
- half-life ([6]; single oral dose 2 mg): 5.6 h
- Tmax ([6]; single oral dose 2 mg): 2.5 h
- Cmax/Dose ([6]; single oral dose 0.005 mg): 0.007
- AUC/dose ([6]; single oral dose 0.025 mg): 0.053
- CL/F ([6]; single oral dose 0.025 mg): 19.0 L/h
- Cmax/Dose ([6]; single oral dose 0.025 mg): 0.006
- AUC/dose ([6]; single oral dose 0.075 mg): 0.049
- CL/F ([6]; single oral dose 0.075 mg): 20.5 L/h
- Cmax/Dose ([6]; single oral dose 0.075 mg): 0.006
- AUC/dose ([6]; single oral dose 0.23 mg): 0.061
- CL/F ([6]; single oral dose 0.23 mg): 16.3 L/h
- Cmax/Dose ([6]; single oral dose 0.23 mg): 0.006
- AUC/dose ([6]; single oral dose 0.68 mg): 0.046
- CL/F ([6]; single oral dose 0.68 mg): 21.9 L/h
- Cmax/Dose ([6]; single oral dose 0.68 mg): 0.005
- AUC/dose ([6]; single oral dose 1.35 mg): 0.054
- CL/F ([6]; single oral dose 1.35 mg): 18.7 L/h
- Cmax/Dose ([6]; single oral dose 1.35 mg): 0.005
- AUC/dose ([6]; single oral dose 2 mg): 0.046
- CL/F ([6]; single oral dose 2 mg): 22.0 L/h
- Cmax/Dose ([6]; single oral dose 2 mg): 0.005
- mean plasma concentrations ([6]; total oral doses 0.005-2 mg): 0.17 to 43.9 nM
- mean plasma concentrations ([6]; total oral doses 0.025-0.68 mg): 0.6 to 15 nM
- NOAEL [7]: 5.6 mg/kg
- Dose active: Ventral Tegmental Area dopamine neuron firing - increased [8]: 0.00138 mg/kg
- mutagenicity [9]: not mutagenic
- predicted human Vdss [10, 13]: 2.7 L/kg
- predicted human systemic clearance [10, 13]: 5.9 mL/min/kg
- human predicted half-life ([10]; one-compartment pharmacokinetic model): 5.3 h
- single dose followed by frequent vomiting [11]: 17.3 mg/kg and 34.6 mg/kg
- Cmax ([12]; oral, day 7 (lowest)): 800 nM
- Cmax ([12]; po, day 4): 1500 nM
